Source: patent US8440837B2, “2-substituted-ethynylthiazole derivatives and uses of same” (H. Lundbeck A/S, priority 2009, dated 2013)

Target: human metabotropic glutamate receptor 5 (hmGluR5) (UniProt P31424)
Assay: Calcium mobilization (FLIPR) assay, positive allosteric modulation of the EC20 glutamate response
Assay type: cell-based
Settings: HEK 293 cells; for maximum modulation (Emax): EC20 glutamate response; for EC50: increase in EC20 glutamate response
Procedure: The cDNA for human metabotropic glutamate receptor 5 (hmGluR5) was a generous gift from S. Nakanishi (Kyoto University, Kyoto, Japan). The […] was stably expressed in a HEK 293 cell line and grown in Dulbecco's Modified Eagle Medium (DMEM) (Invitrogen, Carlsbad, Calif.) with supplements (10% bovine calf serum, 4 mM glutamine, 100 units/mL penicillin, 100 μg/mL streptomycin and […]) at 37° C., 5% CO2. Twenty-four hours prior to assay, cells were seeded into 384-well black wall microtiter plates coated with poly-D-lysine. Just prior to assay, media was aspirated and cells dye-loaded (25 μL/well) with 3 μM Fluo-4/0.01% pluronic acid in assay buffer (Hank's Balanced Saline Solution (HBSS)): 150 mM NaCl, 5 mM KCl, 1 mM CaCl2, 1 mM MgCl2, plus 20 mM N-2-Hydroxyethylpiperazine-N′-2-ethanesulfonic acid (HEPES), pH 7.4, 0.1% bovine serum albumin (BSA) and 2.5 mM probenicid) for 1 hour in 5% CO2 at 37° C. After excess dye was discarded, cells were washed in assay buffer and layered with a final volume equal to 30 μL/well. Basal fluorescence is monitored in a fluorometric imaging plate reader (FLIPR) (Molecular Devices, Sunnyvale, Calif.) with an excitation wavelength of 488 nm and an emission range of 500 to 560 nm. Laser excitation energy was adjusted so that basal fluorescence readings were approximately 10,000 relative fluorescent units. Cells were stimulated with an EC20 or an EC80 concentration of glutamate in the presence of a compound to be tested, both diluted in assay buffer, and relative fluorescent units were measured at defined intervals (exposure=0.6 sec) over a 3 min period at room temperature. Basal readings derived from negative controls were subtracted from all samples. Maximum change in fluorescence was calculated for each well. Concentration-response curves derived from the maximum change in fluorescence were analyzed by nonlinear regression (Hill equation).
A silent allosteric modulator (SAM) can be identified by using a combination of both the calcium mobilization assay data and the radioligand binding data. As used herein, the term “silent allosteric modulator” refers to a ligand that binds to an allosteric site of the receptor but has no measurable intrinsic efficacy.

SMILES	maximum modulation (Emax) [%]	EC50 [nM]
C(#Cc1ncc(CN2CCCCC2)s1)c1ccccc1 [Example 206, 1-(2-Phenylethynyl-thiazol-5-ylmethyl)-piperidine]	130	97
O=C(c1cnc(C#Cc2ccccc2)s1)N1CCCC(N2CCOCC2)CC1 (stereo not shown) [Example 148, (4-Morpholin-4-yl-azepan-1-yl)-(2-phenylethynyl-thiazol-5-yl)-methanone]	100	3400
O=C(c1cnc(C#Cc2ccccc2)s1)N1CCc2sccc2C1 [Example 135, (6,7-Dihydro-4H-thieno[3,2-c]pyridin-5-yl)-(2-phenylethynyl-thiazol-5-yl)-methanone]	180	20
CCN1CCN(C(=O)c2cnc(C#Cc3cccc(Cl)c3)s2)CC1 [Example 159, [2-(3-Chloro-phenylethynyl)-thiazol-5-yl]-(4-ethyl-piperazin-1-yl)-methanone]	74	510
CC1(O)CCN(C(=O)c2cnc(C#Cc3ccccc3)s2)CC1 [Example 80, (4-Hydroxy-4-methyl-piperidin-1-yl)-(2-phenylethynyl-thiazol-5-yl)-methanone]	120	290
CN1CCN(C(=O)c2cnc(C#Cc3cccc(Cl)c3)s2)CC1 [Example 158, [2-(3-Chloro-phenylethynyl)-thiazol-5-yl]-(4-methyl-piperazin-1-yl)-methanone]	94	140
O=C(c1cnc(C#Cc2ccccc2)s1)N1CCCCCC1 [Example 58, Azepan-1-yl-(2-phenylethynyl-thiazol-5-yl)-methanone]	79	5.2
CC1CCN(C(=O)c2cnc(C#Cc3cccc(F)c3)s2)CC1 [Example 20]	110	0.71
C(#Cc1ncc(CN2CCCC2)s1)c1ccccc1 [Example 207, 2-Phenylethynyl-5-pyrrolidin-1-ylmethyl-thiazole]	110	220
O=C(c1cnc(C#Cc2cccc(Cl)c2)s1)N1CCC(O)CC1 [Example 38, [2-(3-Chloro-phenylethynyl)-thiazol-5-yl]-(4-hydroxy-piperidin-1-yl)-methanone]	42	12
CCOC1CCN(C(=O)c2cnc(C#Cc3ccccc3)s2)CC1 [Example 122, (4-Ethoxy-piperidin-1-yl)-(2-phenylethynyl-thiazol-5-yl)-methanone]	130	220
O=C(c1cnc(C#Cc2ccc(F)cc2)s1)N1CCC(O)CC1 [Example 29, [2-(4-Fluoro-phenylethynyl)-thiazol-5-yl]-(4-hydroxy-piperidin-1-yl)-methanone]	100	2400
Cc1nc(C#Cc2ccccc2)sc1C(=O)N1CCC(C)CC1 [Example 14, (4-Methyl-2-phenylethynyl-thiazol-5-yl)-(4-methyl-piperidin-1-yl)-methanone]	91	23
O=C(c1cnc(C#Cc2ccccc2)s1)N1CC2CCCC2C1 (stereo not shown) [Example 144, (Hexahydro-cyclopenta[c]pyrrol-2-yl)-(2-phenylethynyl-thiazol-5-yl)-methanone]	110	1.8
COC1CCN(C(=O)c2cnc(C#Cc3ccccc3)s2)CC1 [Example 121, (4-Methoxy-piperidin-1-yl)-(2-phenylethynyl-thiazol-5-yl)-methanone]	140	58
COC1CN(Cc2cnc(C#Cc3ccccc3)s2)C1 [Example 214, 5-(3-Methoxy-azetidin-1-ylmethyl)-2-phenylethynyl-thiazole]	120	760
CC1(O)CCN(C(=O)c2cnc(C#Cc3ccccc3)s2)C1 (stereo not shown) [Example 137, (3-Hydroxy-3-methyl-pyrrolidin-1-yl)-(2-phenylethynyl-thiazol-5-yl)-methanone]	38	110
O=C(c1cnc(C#Cc2ccccc2)s1)N1CCC(F)(F)CC1 [Example 82, (4,4-Difluoro-piperidin-1-yl)-(2-phenylethynyl-thiazol-5-yl)-methanone]	150	4.3
O=C(c1cnc(C#Cc2ccccc2)s1)N1CCN(c2ccccc2)CC1 [Example 41, (2-Phenylethynyl-thiazol-5-yl)-(4-phenyl-piperazin-1-yl)-methanone]	52	360

SMILES	maximum modulation (Emax) [%]	EC50 [nM]
O=C(c1cnc(C#Cc2ccc(F)cc2)s1)N1CCCCC1 [Example 30, [2-(4-Fluoro-phenylethynyl)-thiazol-5-yl]-piperidin-1-yl-methanone]	110	29
CN(C)Cc1cnc(C#Cc2ccccc2)s1 [Example 212, Dimethyl-(2-phenylethynyl-thiazol-5-ylmethyl)-amine]	71	37
OC(c1cnc(C#Cc2ccccc2)s1)C1CCCCC1 (stereo not shown) [Example 235, Cyclohexyl-(2-phenylethynyl-thiazol-5-yl)-methanol]	50	53
O=C(c1cnc(C#Cc2ccccc2)s1)N1CCC(C(F)(F)F)CC1 [Example 111, (2-Phenylethynyl-thiazol-5-yl)-(4-trifluoromethyl-piperidin-1-yl)-methanone]	130	64
O=C(c1cnc(C#Cc2ccccc2)s1)N1CCc2[nH]ncc2C1 [Example 77, (2-Phenylethynyl-thiazol-5-yl)-(1,4,6,7-tetrahydro-pyrazolo[4,3-c]pyridin-5-yl)-methanone]	120	100
F[C@@H]1CCN(Cc2cnc(C#Cc3ccccc3)s2)C1 [Example 230, 5-((R)-3-Fluoro-pyrrolidin-1-ylmethyl)-2-phenylethynyl-thiazole]	110	33
O=C(c1cnc(C#Cc2cccnc2)s1)N1CCCCC1 [Example 188, Piperidin-1-yl-(2-pyridin-3-ylethynyl-thiazol-5-yl)-methanone]	95	6200
COc1ccc(C#Cc2ncc(C(=O)N3CCCCC3)s2)cc1 [Example 192, [2-(4-Methoxy-phenylethynyl)-thiazol-5-yl]-piperidin-1-yl-methasone]	64	2200
O=C(c1cnc(C#Cc2ccccc2)s1)N1CCC(N2CCCC2)C1 (stereo not shown) [Example 141, [1,3]Bipyrrolidinyl-1-yl-(2-phenylethynyl-thiazol-5-yl)-methanone]		4000
CC1CCN(C(=O)c2cnc(C#Cc3ccccc3F)s2)CC1 [Example 63, [2-(2-Fluoro-phenylethynyl)-thiazol-5-yl]-(4-methyl-piperidin-1-yl)-methanone]	140	20
C(#Cc1ncc(CN2CC3CCC2C3)s1)c1ccccc1 (stereo not shown) [Example 218, 2-(2-Phenylethynyl-thiazol-5-ylmethyl)-2-aza-bicyclo[2.2.1]heptane]	79	380
O=C(c1cnc(C#Cc2ccccc2)s1)N1CC(N2CCOCC2)C1 [Example 132, (3-Morpholin-4-yl-azetidin-1-yl)-(2-phenylethynyl-thiazol-5-yl)-methanone]	40	230
CC(c1cnc(C#Cc2ccccc2)s1)N1CCOCC1 (stereo not shown) [Example 232, 4-[1-(2-Phenylethynyl-thiazol-5-yl)-ethyl]-morpholine]	62	220
O=C(c1cnc(C#Cc2ccccc2Cl)s1)N1CCCCC1 [Example 68, [2-(2-Chloro-phenylethynyl)-thiazol-5-yl]-piperidin-1-yl-methanone]	100	440
N#Cc1cccc(C#Cc2ncc(C(=O)N3CCCCC3)s2)c1 [Example 196, 3-[5-(Piperidine-1-carbonyl)-thiazol-2-ylethynyl]-benzonitrile]	45	12
O=C(c1cnc(C#Cc2ccccc2)s1)N1CCC2(CCCO2)CC1 [Example 78]	120	200
O=C(c1cnc(C#Cc2ccsc2)s1)N1CCCCC1 [Example 190, Piperidin-1-yl-(2-thiophen-3-ylethynyl-thiazol-5-yl)-methanone]	78	5.2
CC(=O)c1cnc(C#Cc2ccccc2)s1 [Example 239, 1-(2-Phenylethynyl-thiazol-5-yl)-ethanone]	170	190
